For data set [1] the following is noted: rat.
Protocol: (§1) Formulation of preparation and dosing: An appropriate amount of the test sample was precisely weighed, and mixed with an appropriate volume of a solvent to obtain a clear solution or a homogeneous suspension. The preparation was administered to animals within 4 hours after formulation. The dosage formulation would be administered by oral gavage in accordance with facility standard operating procedures. The dosage volume would be determined by the body weights of the animals collected on the morning of administering.
(§2) Blood collection: Blood (approx. 0.2 ml per point in time) would be acupunctured each time from the jugular vein of every animal into a polypropylene tube. All blood samples would be transferred to pre-cooled commercial EDTA-K2 test tubes, and kept on wet ice until they were centrifuged.
(§3) Plasma processing: Blood samples would be centrifuged (3200 rpm, 10 min) at approximately 4° C. Plasma was collected separately and transferred to pre-labeled PP tubes in wet ice at each point in time, and then immediately precipitated by ACN (6 IS) (the ratio of plasma: ACN was 1:4). Centrifugation (10 min, 12,000 rpm) was carried out again to obtain a supernatant. The supernatant was quickly frozen on dry ice and kept at −70±10° C. before LC/MS/MS analysis.
(§4) Liver processing: Liver tissues were collected at each point in time, washed twice with pre-cooled deionized water, and dried with filter paper. Liver tissues were immediately homogenized with 10-times volume of a methanol-water solution (1:2, v/v). After homogenization, a portion of liver tissue homogenate (e.g., 200 uL of homogenate) was immediately measured and delivered to an analyst. After precipitated on wet ice, the samples were centrifuged, and a supernatant was collected and stored in a refrigerator at −70±10° C. before LC-MS/MS analysis. From the remaining liver homogenate, 800 uL of the homogenate was measured as a spare.
Data set [2] can be described thus: Pharmacokinetic test: gavage to rats, active metabolites in plasma and liver by LC-MS/MS. The note with it: for half-life: T1/2, rats; for half-life / Tlast: gavage of obeticholic acid.
Protocol: as §1, §2, §3, §4
For data set [3], the target named is T1, farnesoid X receptor (FXR) (Homo sapiens, UniProt Q96RI1).
T1 sequence (Q96RI1 1-486): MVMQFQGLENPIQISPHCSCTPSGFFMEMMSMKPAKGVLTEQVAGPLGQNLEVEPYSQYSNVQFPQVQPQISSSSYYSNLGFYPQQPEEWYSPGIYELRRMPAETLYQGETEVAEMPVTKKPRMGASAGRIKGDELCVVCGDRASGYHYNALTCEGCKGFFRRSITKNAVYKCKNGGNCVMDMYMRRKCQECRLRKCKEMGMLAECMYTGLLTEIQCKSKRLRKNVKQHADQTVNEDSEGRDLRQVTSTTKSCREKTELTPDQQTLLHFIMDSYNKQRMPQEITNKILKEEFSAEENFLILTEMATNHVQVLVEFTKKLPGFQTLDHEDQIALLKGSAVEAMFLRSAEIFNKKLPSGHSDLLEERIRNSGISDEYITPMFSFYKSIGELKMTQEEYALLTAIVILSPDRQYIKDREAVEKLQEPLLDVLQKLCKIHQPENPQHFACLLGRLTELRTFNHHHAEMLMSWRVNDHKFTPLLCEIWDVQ
The note with it: reference literature: sandwich-cultured human hepatocytes; cited from earlier work.

Data set [4] can be described thus: in vivo. To be noted: rat, po.
Protocol: as §1, §2, §3, §4
The conditions of data set [5]: clinical treatment of liver diseases such as fatty liver; cited from earlier work.
Where [6] appears, read: rat, plasma, po, 0.0576 mmol/kg.

Several values for one entry are separate records, joined by “and”; a condition that tells them apart may be missing. Equal values may be shown once. Read-outs that look alike come from different tables or passages of the source.

The values below come from patent US20230146782A1, “DEOXYCHOLIC ACID COMPOUNDS, PHARMACEUTICAL COMPOSITIONS AND USES THEREOF” (priority 2019, published 2023).

Regarding `CC[C@@H]1C2C[C@H](O)CC[C@]2(C)[C@H]2CC[C@]3(C)[C@@H]([C@H](C)CCC(=O)NCC(=O)OC(C)C)CC[C@H]3[C@@H]2[C@@H]1O` (some centres unmarked) [Compound I-4], in data set [1], the “In vivo active compounds in the rats after administration” value (“In vivo active compounds in the rats” below) was “Compound 4”. The “Total effective drug amount in the liver, compared with OCA” value in data set [1] (in vivo) is “significantly increased”.

Consider `CC[C@@H]1C2C[C@H](O)CC[C@]2(C)[C@H]2CC[C@]3(C)[C@@H]([C@H](C)CCC(=O)NCC(=O)OCc4ccccc4)CC[C@H]3[C@@H]2[C@@H]1O` (some centres unmarked) [Compound I-5], for which, in data set [1], the “In vivo active compounds in the rats” value was “Compound 4”. Besides, in data set [1] (in vivo), the “Decrease of AUC of the effective drug in the blood versus direct administration of OCA” value turned out to be 84%; the “Increase of total AUC of Compound 4 in liver and plasma versus Compound 4 directly administered” value worked out at 28%; the “Total effective drug amount in the liver, compared with OCA” value is reported as “significantly increased”. In data set [1] (in vivo, po), the “AUC ratio of the obeticholic acid-glycine conjugate 4 in liver/plasma” value is given as 18.7; the “Total AUC of the Compound 4 in the liver and plasma” value came out at 150442.

As to `CCOC(=O)[C@@H](N)Cc1ccc(OC(=O)CNC(=O)CC[C@@H](C)[C@H]2CC[C@H]3[C@@H]4[C@H](O)[C@H](CC)C5C[C@H](O)CC[C@]5(C)[C@H]4CC[C@]23C)cc1` (some centres unmarked) [Compound I-6], in data set [1], the “In vivo active compounds in the rats” value is reported as “Compound 4”. Besides, the “Total effective drug amount in the liver, compared with OCA” value in data set [2] (rats, gavage, same molar dosage as OCA) is reported as “significantly increased”.

With `CC[C@H]1[C@@H](O)[C@@H]2[C@H](CC[C@]3(C)[C@@H]([C@H](C)CCC(=O)NCC(=O)O)CC[C@@H]23)[C@@]2(C)CC[C@@H](O)C[C@@H]12` [Compound 4], the “Effect on activation of the farnesoid X receptor (FXR) activity, compared with obeticholic acid” value in data set [3] is reported as “almost the same as the effect of the obeticholic acid”. In addition, the “In vivo active compounds in the rats” value in data set [1] was “Compound 4”. In addition, the Tlast in data set [1] (in vivo) was found to be 24.0 h. In data set [1] (in vivo, po), the AUC0-last came to 107187 ng·h/g; the “AUC ratio of the obeticholic acid-glycine conjugate 4 in liver/plasma” value is on record as 14.7; the AUC(0-inf) stood at 110040 ng·h/g; the “Total AUC in plasma and liver” value is reported as 117503. The “Total AUC of the Compound 4 in the liver and plasma” value in data set [1] (in vivo, po) is 117503. The “AUC Ratio (liver/plasma)” value in data set [1] (in vivo, po, 0.0576 mmol/kg) is given as 42.3. This compound had a Kp in data set [4] of 14.7. In data set [4] (0.0576 mmol/kg), the AUC(0-inf) worked out at 7.46 µg·h/mL; the area under the curve AUC(0-t) (as a rule, the area under the concentration-time curve up to a stated or last time point) came to 7.31 µg·h/mL; the Cmax (commonly the highest concentration seen after dosing) is 788 ng/mL and 16800 ng/g; the time of peak concentration (Tmax) (usually the time from dosing to the highest level) was determined as 4 h. Besides, in data set [4] (0.0576 mmol/kg, MRT0-inf), the mean residence time (MRT inf) (commonly a mean duration of stay, worked out from the concentration-time curve) amounted to 6.1 h. Also, the MRT last – broadly, the average time that molecules of a dose stay in the body – in data set [4] (0.0576 mmol/kg, MRT0-last) is 5.56 h. The half-life – broadly, the time needed for the level to fall by half in the phase considered – in data set [4] (0.0576 mmol/kg, T1/2) is 4.79 h.

On to `CC[C@H]1[C@@H](O)[C@@H]2[C@H](CC[C@]3(C)[C@@H]([C@H](C)CCC(=O)O)CC[C@@H]23)[C@@]2(C)CC[C@@H](O)C[C@@H]12` [OCA, 6-α-ethylchenodeoxycholic acid], for which, in data set [5], the Incidence of pruritus is 63% and the Incidence of rash entry is “up to 32%”. Also, in data set [2] (rat, liver and plasma (AUC ratio), po, 0.0576 mmol/kg), the Kp was 0.663. In data set [2] (rat, liver, po, 0.0576 mmol/kg), the maximum concentration (Cmax) is 17900 ng/g and the Tmax came to 0.5 h. For the same compound, in data set [2] (rat, liver, po, 0.0576 mmol/kg, OCA in liver), the half-life is 3.33 h. In data set [2] (setting [6]), the AUC(0-inf) was determined as 50.3 µg·h/mL, the exposure AUC(0-t) came to 48.1 µg·h/mL, the Cmax came to 24.3 µg/mL and the Tmax is 0.5 h. Further, in data set [2] (rat, plasma, po, 0.0576 mmol/kg, OCA in plasma), the half-life is 4.35 h. Also, in data set [2] (rats, 0.0576 mmol/kg, OCA in liver), the Tlast came out at 24.0 h. The Tlast in data set [2] (rats, 0.0576 mmol/kg, OCA in plasma) amounted to 24.0 h.

On to `CC[C@H]1[C@@H](O)[C@@H]2[C@H](CC[C@]3(C)[C@@H]([C@H](C)CCC(=O)NCCS(=O)(=O)O)CC[C@@H]23)[C@@]2(C)CC[C@@H](O)C[C@@H]12` [OCA-Tau, reference compound], for which, in data set [3], the “Effect on activation of the farnesoid X receptor (FXR) activity, compared with obeticholic acid” value is reported as “almost the same as the effect of the obeticholic acid”.
